Measurements taken from US20050197350A1, “Novel quinoline, tetrahydroquinazoline, and pyrimidine derivatives and methods of treatment related to the use thereof” (TAISHO PHARMACEUTICAL CO., LTD., priority 2003, published 2005).

test system: MCH receptors; test: MCH receptor activity class (method not given); settings: MCH receptor activity class 1-3 (percent of control at 10^-7 M or IC50)

Row | SMILES | class
1 | Cc1c(NC(=O)NC[C@H]2CC[C@@H](Nc3nccc(N(C)C)n3)CC2)cccc1[N+](=O)[O-] [compound 2427, N-[(cis-4-{[4-(dimethylamino)pyrimidin-2-yl]amino}cyclohexyl)methyl]-N′-(2-methyl-3-nitrophenyl)urea] | 1 (Class 1: The value of percent of control at 10^−7 M was less than 40% or the value of IC50 was less than 50 nM.)
2 | CN(C)c1cc(N[C@H]2CC[C@@H](CNC(=O)Nc3ccc(F)cc3)CC2)nc2ccccc12 [compound 2364] | 3 (Class 3 The value of percent of control at 10^−7 M was more than 60% or the value of IC50 was more than 200 nM.)

same assay, conditions: MCH receptor; class by percent of control at 10^-7 M or IC50

Row | SMILES | class
3 | CN(C)c1nc(N[C@H]2CC[C@@H](NC(=S)NC34CC5CC(CC(C5)C3)C4)CC2)nc2c1CCCC2 (relative stereo) [compound 1962] | 3 (Class 3 The value of percent of control at 10^−7 M was more than 60% or the value of IC50 was more than 200 nM.)
4 | CN(C)c1cc(NC2CCC(CNC(=O)OCc3ccc([N+](=O)[O-])cc3)CC2)nc2ccccc12 (stereo not drawn) [compound 183] | 3 (Class 3 The value of percent of control at 10^−7 M was more than 60% or the value of IC50 was more than 200 nM.)
5 | CN(C)c1nc(N[C@H]2CC[C@@H](NC(=S)Nc3cc(C(F)(F)F)ccc3F)CC2)nc2c1CCCC2 [compound 1977] | 3 (Class 3 The value of percent of control at 10^−7 M was more than 60% or the value of IC50 was more than 200 nM.)
6 | Cc1cc(C(=O)N[C@H]2CC[C@@H](Nc3cc(N(C)C)c4ccccc4n3)CC2)n(C)n1 [compound 103] | 3 (Class 3 The value of percent of control at 10^−7 M was more than 60% or the value of IC50 was more than 200 nM.)
7 | Cc1cc(C(=O)NC[C@H]2CC[C@@H](Nc3cc(N(C)C)c4ccccc4n3)CC2)ccc1Br [compound 184] | 3 (Class 3 The value of percent of control at 10^−7 M was more than 60% or the value of IC50 was more than 200 nM.)
8 | Cc1ccc(NC(=S)N[C@H]2CC[C@@H](Nc3nc4c(c(N(C)C)n3)CCCC4)CC2)cc1Cl [compound 2010] | 3 (Class 3 The value of percent of control at 10^−7 M was more than 60% or the value of IC50 was more than 200 nM.)

same assay, conditions: activity class 1-3: percent of control at 10^-7 M or IC50

Row | SMILES | class
9 | CN(C)c1nc(N[C@H]2CC[C@@H](NC(=O)Nc3ccc(F)cc3F)CC2)nc2c1CCCC2 [compound 1661] | 3 (Class 3 The value of percent of control at 10^−7 M was more than 60% or the value of IC50 was more than 200 nM.)
10 | CCCc1ccccc1NC(=O)N[C@H]1CC[C@@H](Nc2nc3c(c(N(C)C)n2)CCCC3)CC1 [compound 1682] | 3 (Class 3 The value of percent of control at 10^−7 M was more than 60% or the value of IC50 was more than 200 nM.)
11 | CCOC(=O)N[C@H]1CC[C@@H](Nc2cc(N(C)C)c3ccccc3n2)CC1 [compound 1547] | 3 (Class 3 The value of percent of control at 10^−7 M was more than 60% or the value of IC50 was more than 200 nM.)
12 | CN(C)c1ccnc(N[C@H]2CC[C@@H](CNC(=O)Oc3cccc(C(F)(F)F)c3)CC2)n1 [compound 1642] | 3 (Class 3 The value of percent of control at 10^−7 M was more than 60% or the value of IC50 was more than 200 nM.)

same assay, conditions: activity class per percent of control at 10^-7 M or IC50

Row | SMILES | class
13 | CN(C)c1cc(N[C@H]2CC[C@@H](CNCc3ccccc3C#N)CC2)nc2ccccc12 [compound 1147] | 3 (Class 3 The value of percent of control at 10^−7 M was more than 60% or the value of IC50 was more than 200 nM.)
14 | CN(C)c1cccc(C(=O)N[C@H]2CC[C@@H](Nc3nc4c(c(N(C)C)n3)CCCC4)CC2)c1 [compound 981, 3-(dimethylamino)-N-(cis-4-{[4-(dimethylamino)-5,6,7,8-tetrahydroquinazolin-2-yl]amino}cyclohexyl)benzamide] | 2 (Class 2: The value of percent of control at 10^−7 M was from 40% to 60% or the value of IC′50 was from 50 nM to 200 nM.)
15 | CN(C)c1nc(N[C@H]2CC[C@@H](NC(=O)c3ccc4ncsc4c3)CC2)nc2c1CCCC2 [compound 1054] | 3 (Class 3 The value of percent of control at 10^−7 M was more than 60% or the value of IC50 was more than 200 nM.)
16 | Cc1c(C(=O)N[C@H]2CC[C@@H](Nc3nc4c(c(N(C)C)n3)CCCC4)CC2)cc(-c2ccccc2)n1CCCN1CCOCC1 [compound 1000] | 1 (Class 1: The value of percent of control at 10^−7 M was less than 40% or the value of IC50 was less than 50 nM.)

same assay, conditions: class 1-3 by percent of control at 10^-7 M or IC50

Row | SMILES | class
17 | CN(C)c1nc(N[C@H]2CC[C@@H](NC(=O)COc3cccc(Cl)c3)CC2)nc2c1CCCC2 [compound 569] | 1 (Class 1: The value of percent of control at 10^−7 M was less than 40% or the value of IC50 was less than 50 nM.)

same assay, conditions: class by percent of control at 10^-7 M or IC50

Row | SMILES | class
18 | COc1cc(Br)cc(CN[C@H]2CC[C@@H](Nc3nccc(N(C)C)n3)CC2)c1O [compound 1212] | 3 (Class 3 The value of percent of control at 10^−7 M was more than 60% or the value of IC50 was more than 200 nM.)
19 | COc1ccc(CNC[C@H]2CC[C@@H](Nc3nccc(N(C)C)n3)CC2)c(OC)c1C [compound 1288] | 1 (Class 1: The value of percent of control at 10^−7 M was less than 40% or the value of IC50 was less than 50 nM.)
20 | CN(C)c1nc(N[C@H]2CC[C@@H](NC(=O)Cc3c(Cl)ccc(Cl)c3Cl)CC2)nc2c1CCCC2 [compound 950] | 2 (Class 2: The value of percent of control at 10^−7 M was from 40% to 60% or the value of IC′50 was from 50 nM to 200 nM.)
21 | CN(C)c1nc(N[C@H]2CC[C@@H](NC(=O)CCC3CCCCC3)CC2)nc2c1CCCC2 [compound 971] | 3 (Class 3 The value of percent of control at 10^−7 M was more than 60% or the value of IC50 was more than 200 nM.)
22 | CN(C)c1cc(N[C@H]2CC[C@@H](NC(=O)Nc3ccccc3Br)CC2)nc2ccccc12 [compound 2123] | 3 (Class 3 The value of percent of control at 10^−7 M was more than 60% or the value of IC50 was more than 200 nM.)
23 | Cc1cc(C(=O)N[C@H]2CC[C@@H](Nc3nccc(N(C)C)n3)CC2)ccc1F [compound 299, N-(cis-4-{[4-(dimethylamino)pyrimidin-2-yl]amino}cyclohexyl)-4-fluoro-3-methylbenzamide] | 1 (Class 1: The value of percent of control at 10^−7 M was less than 40% or the value of IC50 was less than 50 nM.)
24 | CN(C)c1nc(N[C@H]2CC[C@@H](NC(=S)NCc3ccccc3Cl)CC2)nc2c1CCCC2 [compound 1759] | 3 (Class 3 The value of percent of control at 10^−7 M was more than 60% or the value of IC50 was more than 200 nM.)
25 | CN(C)c1cc(N[C@H]2CC[C@@H](CNC(=O)c3cccc4c3-c3ccccc3C4=O)CC2)nc2ccccc12 [compound 226] | 3 (Class 3 The value of percent of control at 10^−7 M was more than 60% or the value of IC50 was more than 200 nM.)
26 | CN(C)c1ccnc(N[C@H]2CC[C@@H](NC(=O)c3cccc(Cl)c3F)CC2)n1 [compound 277] | 3 (Class 3 The value of percent of control at 10^−7 M was more than 60% or the value of IC50 was more than 200 nM.)
27 | COC(C(=O)N[C@H]1CC[C@@H](Nc2cc(N(C)C)c3ccccc3n2)CC1)c1ccccc1 (relative stereo) [compound 777] | 3 (Class 3 The value of percent of control at 10^−7 M was more than 60% or the value of IC50 was more than 200 nM.)
28 | CCCN(CCC)S(=O)(=O)c1ccc(C(=O)N[C@H]2CC[C@@H](Nc3nccc(N(C)C)n3)CC2)cc1 [compound 356, N-(cis-4-{[4-(dimethylamino)pyrimidin-2-yl]amino}cyclohexyl)-4-[(dipropylamino)sulfonyl]benzamide] | 1 (Class 1: The value of percent of control at 10^−7 M was less than 40% or the value of IC50 was less than 50 nM.)
29 | Cc1ccc(C(=O)N[C@H]2CC[C@@H](Nc3nccc(N(C)C)n3)CC2)cc1 [compound 269] | 3 (Class 3 The value of percent of control at 10^−7 M was more than 60% or the value of IC50 was more than 200 nM.)
30 | CN(C)c1ccnc(N[C@H]2CC[C@@H](NC(=O)c3cc(F)cc(F)c3)CC2)n1 [compound 252, N-(cis-4-{[4-(dimethylamino)pyrimidin-2-yl]amino}cyclohexyl)-3,5-difluorobenzamide] | 2 (Class 2: The value of percent of control at 10^−7 M was from 40% to 60% or the value of IC′50 was from 50 nM to 200 nM.)
31 | COc1cc(NC(=O)N[C@H]2CC[C@@H](Nc3nc4c(c(N(C)C)n3)CCCC4)CC2)cc(OC)c1OC [compound 1719] | 1 (Class 1: The value of percent of control at 10^−7 M was less than 40% or the value of IC50 was less than 50 nM.)
32 | CN(C)c1nc(N[C@H]2CC[C@@H](CNCc3ccc(OCc4ccc(Br)cc4)cc3)CC2)nc2c1CCCC2 [compound 1445] | 3 (Class 3 The value of percent of control at 10^−7 M was more than 60% or the value of IC50 was more than 200 nM.)

same assay, conditions: class by percent of control at 10^−7 M or IC50

Row | SMILES | class
33 | Cc1ccc(C(=O)N[C@H]2CC[C@@H](Nc3nc(C)cc(N(C)C)n3)CC2)cc1 [compound 2985, N-(cis-4-{[4-(dimethylamino)-6-methylpyrimidin-2-yl]amino}cyclohexyl)-4-methylbenzamide] | 1 (Class 1: The value of percent of control at 10^−7 M was less than 40% or the value of IC50 was less than 50 nM.)
34 | Cc1cnc(N[C@H]2CC[C@@H](NC(=O)c3ccc(F)cc3)CC2)nc1N(C)C [compound 2899, N-(cis-4-{[4-(dimethylamino)-5-methylpyrimidin-2-yl]amino}cyclohexyl)-4-fluorobenzamide] | 1 (Class 1: The value of percent of control at 10^−7 M was less than 40% or the value of IC50 was less than 50 nM.)
35 | Cc1cc(N(C)C)nc(N[C@H]2CC[C@@H](CNC(=O)c3ccccc3)CC2)n1 [compound 2751, N-[(cis-4-{[4-(dimethylamino)-6-methylpyrimidin-2-yl]amino}cyclohexyl)methyl]benzamide] | 3 (Class 3 The value of percent of control at 10^−7 M was more than 60% or the value of IC50 was more than 200 nM.)
36 | Cc1cnc(N[C@H]2CC[C@@H](NC(=O)c3cccc(C(F)(F)F)c3)CC2)nc1N(C)C [compound 2896, N-(cis-4-{[4-(dimethylamino)-5-methylpyrimidin-2-yl]amino}cyclohexyl)-3-(trifluoromethyl)benzamide] | 1 (Class 1: The value of percent of control at 10^−7 M was less than 40% or the value of IC50 was less than 50 nM.)
